In the supplement of paper PMC10307832:

Legend:
Assay in all cases: relative viability (nuclei count vs DMSO), 5 days (fraction); higher = more cells survive
Venetoclax + Bortezomib = compound: CC1(C)CCC(CN2CCN(c3ccc(C(=O)NS(=O)(=O)c4ccc(NCC5CCOCC5)c([N+](=O)[O-])c4)c(Oc4cnc5[nH]ccc5c4)c3)CC2)=C(c2ccc(Cl)cc2)C1 [Venetoclax] + CC(C)C[C@H](NC(=O)[C@H](Cc1ccccc1)NC(=O)c1cnccn1)B(O)O [Bortezomib] (partner 0.002 µM)
In short: (§1)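 Nuclei were stained with Hoechst during a one-step fixation (final 0.05% Triton X-100, 1% formaldehyde, 1 ug/ml Hoechst) carried out 5 days after dosing, then counted on 4× images. The cells, lung cancer lines in 1536-well plates, had been dosed by pin tool the day after seeding with one drug alone or a fixed anchor-drug dose plus five library-drug doses (not always all listed) in √10 steps. Relative viability is the nuclei count in treated wells divided by that in vehicle wells, and each value is the median of duplicate plates.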

Venetoclax + Dasatinib = compound: CC1(C)CCC(CN2CCN(c3ccc(C(=O)NS(=O)(=O)c4ccc(NCC5CCOCC5)c([N+](=O)[O-])c4)c(Oc4cnc5[nH]ccc5c4)c3)CC2)=C(c2ccc(Cl)cc2)C1 [Venetoclax] + Cc1nc(Nc2ncc(C(=O)Nc3c(C)cccc3Cl)s2)cc(N2CCN(CCO)CC2)n1 [Dasatinib] (partner 0.075 µM)
In short: as §1

Selumetinib + Trametinib = compound: Cn1cnc2c(F)c(Nc3ccc(Br)cc3Cl)c(C(=O)NOCCO)cc21 [Selumetinib] + CC(=O)Nc1cccc(-n2c(=O)n(C3CC3)c(=O)c3c(Nc4ccc(I)cc4F)n(C)c(=O)c(C)c32)c1 [Trametinib] (partner 0.02 µM)
In short: as §1

Selumetinib + Foretinib = compound: Cn1cnc2c(F)c(Nc3ccc(Br)cc3Cl)c(C(=O)NOCCO)cc21 [Selumetinib] + COc1cc2c(Oc3ccc(NC(=O)C4(C(=O)Nc5ccc(F)cc5)CC4)cc3F)ccnc2cc1OCCCN1CCOCC1 [Foretinib] (partner 0.25 µM)
In short: as §1

Cell Line | relative viability (Venetoclax + Bortezomib; first compound 0.01 µM) | relative viability (Venetoclax + Bortezomib; first compound 0.03162 µM) | relative viability (Venetoclax + Bortezomib; first compound 0.1 µM) | relative viability (Venetoclax + Bortezomib; first compound 0.3162 µM) | relative viability (Venetoclax + Bortezomib; first compound 1 µM) | relative viability (Venetoclax + Dasatinib; first compound 0.01 µM) | relative viability (Venetoclax + Dasatinib; first compound 0.03162 µM) | relative viability (Venetoclax + Dasatinib; first compound 0.1 µM) | relative viability (Venetoclax + Dasatinib; first compound 0.3162 µM) | relative viability (Venetoclax + Dasatinib; first compound 1 µM) | relative viability (Selumetinib + Trametinib; first compound 0.02 µM) | relative viability (Selumetinib + Trametinib; first compound 0.06325 µM) | relative viability (Selumetinib + Trametinib; first compound 0.2 µM) | relative viability (Selumetinib + Trametinib; first compound 0.6325 µM) | relative viability (Selumetinib + Foretinib; first compound 0.02 µM) | relative viability (Selumetinib + Foretinib; first compound 0.06325 µM) | relative viability (Selumetinib + Foretinib; first compound 0.2 µM) | relative viability (Selumetinib + Foretinib; first compound 0.6325 µM)
NCI-H1993 | 1.05 | 1.19 | 0.988 | 1.04 | 1.02 | 0.641 | 0.546 | 0.493 | 0.541 | 0.537 | 0.624 | 0.604 | 0.527 | 0.528 | 0.663 | 0.744 | 0.745 | 0.671
NCI-H2087 | 0.808 | 0.766 | 1 | 0.83 | 0.753 | 0.848 | 0.839 | 0.997 | 0.936 | 0.76 | 0.19 | 0.171 | 0.231 | 0.204 | 0.982 | 0.718 | 0.507 | 0.304
COR-L 105 | 0.867 | 0.902 | 0.751 | 0.777 | 0.691 | 0.42 | 0.364 | 0.296 | 0.462 | 0.377 | 0.435 | 0.427 | 0.345 | 0.468 | 0.978 | 1.1 | 0.846 | 0.534
SW 1573 | 0.983 | 1.06 | 1.02 | 1.18 | 0.997 | 0.431 | 0.445 | 0.517 | 0.599 | 0.452 | 0.599 | 0.56 | 0.522 | 0.545 | 0.909 | 0.776 | 0.638 | 0.598
NCI-H1355 | 1.27 | 1.23 | 1.2 | 1.11 | 1.18 | 0.697 | 0.731 | 0.623 | 0.723 | 0.602 | 0.407 | 0.459 | 0.464 | 0.416 | 0.954 | 0.847 | 0.539 | 0.625
RERF-LC-KJ | 1.08 | 1.31 | 1.19 | 1.22 | 1.05 | 0.62 | 0.84 | 0.784 | 0.779 | 0.675 | 0.911 | 0.858 | 0.887 | 0.981 | 0.87 | 0.901 | 0.853 | 0.819
NCI-H727 | 0.938 | 1.19 | 0.833 | 0.862 | 0.888 | 0.421 | 0.357 | 0.35 | 0.415 | 0.447 | 0.348 | 0.367 | 0.421 | 0.381 | 0.468 | 0.434 | 0.329 | 0.352
NCI-H1734 | 0.815 | 1.07 | 0.921 | 0.946 | 0.914 | 0.471 | 0.415 | 0.417 | 0.446 | 0.451 | 0.708 | 0.73 | 0.707 | 0.723 | 0.88 | 0.843 | 0.672 | 0.611
